In US8530388B2, “Cyclopentadione derived herbicides” (Syngenta Limited, priority 2009, dated 2013):

Tests used:
Type in all cases: in vivo
Lolium perenne (LOLPE) [1] = assay: Post-emergence herbicidal activity, glasshouse pot test; conditions: 312 h, rate 250 g/ha, evaluated after 13 days, read-out: Post-emergence activity, LOLPE (100=total damage to plant; 0=no damage to plant)
Experimental: (§1) Seeds of a variety of test species were sown in standard soil in pots. After cultivation for one day (pre-emergence) or after 8 days cultivation (post-emergence) under controlled conditions in a glasshouse (at 24/16° C., day/night; 14 hours light; 65% humidity), the plants were sprayed with an aqueous spray solution derived from the formulation of the technical active ingredient in acetone/water (50:50) solution containing 0.5% Tween 20 (polyoxyethelyene sorbitan monolaurate, CAS RN 9005-64-5). The test plants were then grown in a glasshouse under controlled conditions in a glasshouse (at 24/16° C., day/night; 14 hours light; 65% humidity) and watered twice daily. After 13 days for pre and post-emergence, the test was evaluated (100=total damage to plant; 0=no damage to plant).
(§2) Test plants: Setaria faberi (SETFA), Lolium perenne (LOLPE), Alopecurus myosuroides (ALOMY), Echinochloa crus-galli (ECHCG), and Avena fatua (AVEFA)

Avena fatua (AVEFA) [2] = assay: as above; conditions: 312 h, rate 250 g/ha, evaluated after 13 days, read-out: Post-emergence activity, AVEFA (100=total damage to plant; 0=no damage to plant)
Experimental: as §1, §2

[3] = tested on: Echinochloa crus-galli (ECHCG); assay: as above; conditions: 312 h, rate 250 g/ha, evaluated after 13 days, read-out: Post-emergence activity, ECHCG (100=total damage to plant; 0=no damage to plant)
Experimental: as §1, §2

[4] = tested on: Alopecurus myosuroides (ALOMY); assay: as above; conditions: 312 h, rate 250 g/ha, evaluated after 13 days, read-out: Post-emergence activity, ALOMY (100=total damage to plant; 0=no damage to plant)
Experimental: as §1, §2

Lolium perenne (LOLPE) [5] = assay: Pre-emergence herbicidal activity, glasshouse pot test; conditions: 312 h, Rate 250 g/ha, sprayed one day after sowing, evaluated after 13 days, 100=total damage to plant, 0=no damage to plant
Experimental: as §1, with “plant). Test plants: Setaria faberi (SETFA), Lolium perenne (LOLPE), Alopecurus myosuroides (ALOMY), Echinochloa crus-galli (ECHCG), and Avena fatua (AVEFA) Pre-Emergence Activity” for “plant).”

Avena fatua (AVEFA) [6] = assay: as above; conditions: 312 h, Rate 250 g/ha, sprayed one day after sowing, evaluated after 13 days, 100=total damage to plant, 0=no damage to plant
Experimental: as §1, with “plant). Test plants: Setaria faberi (SETFA), Lolium perenne (LOLPE), Alopecurus myosuroides (ALOMY), Echinochloa crus-galli (ECHCG), and Avena fatua (AVEFA) Pre-Emergence Activity” for “plant).”

[7] = tested on: Echinochloa crus-galli (ECHCG); assay: as above; conditions: 312 h, Rate 250 g/ha, sprayed one day after sowing, evaluated after 13 days, 100=total damage to plant, 0=no damage to plant
Experimental: as §1, with “plant). Test plants: Setaria faberi (SETFA), Lolium perenne (LOLPE), Alopecurus myosuroides (ALOMY), Echinochloa crus-galli (ECHCG), and Avena fatua (AVEFA) Pre-Emergence Activity” for “plant).”

[8] = tested on: Alopecurus myosuroides (ALOMY); assay: as above; conditions: 312 h, Rate 250 g/ha, sprayed one day after sowing, evaluated after 13 days, 100=total damage to plant, 0=no damage to plant
Experimental: as §1, with “plant). Test plants: Setaria faberi (SETFA), Lolium perenne (LOLPE), Alopecurus myosuroides (ALOMY), Echinochloa crus-galli (ECHCG), and Avena fatua (AVEFA) Pre-Emergence Activity” for “plant).”

Row | Structure (SMILES) | pest or weed control at 250 g/ha (Lolium perenne (LOLPE) [1]) [%] | pest or weed control at 250 g/ha (Avena fatua (AVEFA) [2]) [%] | pest or weed control at 250 g/ha [3] [%] | pest or weed control at 250 g/ha [4] [%] | pest or weed control at 250 g/ha (Lolium perenne (LOLPE) [5]) [%] | pest or weed control at 250 g/ha (Avena fatua (AVEFA) [6]) [%] | pest or weed control at 250 g/ha [7] [%] | pest or weed control at 250 g/ha [8] [%]
1 | CCc1ccc(-c2cc(Cl)c(Cl)cc2Cl)cc1C1=C(O)CCC1=O [Compound T-16] | 60 | 80 | 80 | 50 | 20 | 0 | 50 | 0
2 | CCc1ccc(-c2ccc(Cl)c(C(F)(F)F)c2F)cc1C1=C(O)CCC1=O [Compound T-19] | 60 | 20 | 70 | 60 | 20 | 0 | 10 | 0
3 | CCc1ccc(-c2ccc(Cl)cc2Cl)cc1C1=C(O)CCC1=O [Compound T-14] | 30 | 30 | 70 | 30 | 30 | 0 | 50 | 10
4 | CCc1ccc(-c2ccc(Cl)cc2C)cc1C1=C(O)CCC1=O [Compound T-4] | 30 | 0 | 70 | 50 | 60 | 10 | 50 | 50
5 | CCc1ccc(-c2ccc(Cl)c(F)c2)cc1C1=C(O)CCC1=O [Compound T-9] | 60 | 60 | 100 | 30 | 80 | 50 | 90 | 60
6 | O=C1CCC(O)=C1c1cc(-c2ccc(Cl)cc2Cl)ccc1C1CC1 [Compound T-24, 2-(2′,4′-dichloro-4-cyclopropylbiphenyl-3-yl)-cyclopentane-1,3-dione] | 50 | 10 | 100 | 30 | 50 | 0 | 80 | 0
7 | CCc1ccc(-c2ccc(Cl)c(Cl)c2F)cc1C1=C(O)CCC1=O [Compound T-13] | 40 | 0 | 60 | 10 | 0 | 0 | 0 | 0
8 | CCc1ccc(-c2ccc(C(F)(F)F)cc2)cc1C1=C(O)CCC1=O [Compound T-18] | 70 | 90 | 100 | 80 | 30 | 30 | 50 | 50
9 | CCc1ccc(-c2c(F)cc(Cl)cc2F)cc1C1=C(O)CCC1=O [Compound T-10] | 40 | 50 | 90 | 30 | 0 | 0 | 0 | 0
10 | CCc1ccc(-c2cc(Cl)c(F)cc2F)cc1C1=C(O)CCC1=O [Compound T-22] | 10 | 10 | 60 | 30 | 10 | 0 | 30 | 0
11 | CCc1ccc(-c2ccc(Cl)c(F)c2Cl)cc1C1=C(O)CCC1=O [Compound T-11] | 50 | 30 | 90 | 60 | 30 | 10 | 50 | 20
12 | CCc1ccc(-c2ccc(Cl)c(Cl)c2Cl)cc1C1=C(O)CCC1=O [Compound T-20] | 20 | 10 | 70 | 20 | 10 | 0 | 30 | 0
13 | CCc1ccc(-c2ccc3ccccc3c2)cc1C1=C(O)CCC1=O [Compound T-7] | 30 | 10 | 20 | 10 | 10 | 0 | 20 | 0
14 | CCc1ccc(-c2ccc(Cl)c(OC)c2)cc1C1=C(O)CCC1=O [Compound T-6] | 60 | 10 | 90 | 50 | 30 | 0 | 60 | 0
15 | CCc1ccc(-c2ccc(Cl)cc2F)cc1C1=C(O)CCC1=O [Compound T-3, 2-(4′-chloro-4-ethyl-2′-fluorobiphenyl-3-yl)cyclopentane-1,3-dione] | 40 | 90 | 100 | 30 | 90 | 60 | 100 | 30
16 | CCc1ccc(-c2ccc(Cl)c(C)c2)cc1C1=C(O)CCC1=O [Compound T-15] | 30 | 0 | 30 | 10 | 0 | 0 | 0 | 0
17 | CCc1ccc(-c2ccc(Cl)c(C(F)(F)F)c2)cc1C1=C(O)CCC1=O [Compound T-8] | 60 | 30 | 100 | 50 | 60 | 0 | 60 | 30
18 | CCc1ccc(-c2cc(F)c(Cl)c(F)c2)cc1C1=C(O)CCC1=O [Compound T-21] | 30 | 20 | 40 | 30 | 100 | 10 | 40 | 40
19 | CCc1ccc(-c2ccc(Cl)cc2)cc1C1=C(O)CCC1=O [Compound T-1, 2-(4′-chloro-4-ethylbiphen-3-yl)-1,3-cyclopentanedione] |  | 90 | 100 | 80 |  | 70 | 100 | 90
